Results taken from ChEMBL document CHEMBL5518167, “Degradation of Polo-like Kinase 1 by the Novel Poly-Arginine N-Degron Pathway PROTAC Regulates Tumor Growth in Nonsmall Cell Lung Cancer” (J Med Chem, 2024).
Values belong to the molecule of their own block, whether it stands above or below them. Activity calls are given as the source filed them. The rule behind the calls is not given here. Where a SMILES comes first, the peptide text is derived from it.

How the values were obtained:
[1] = tested on: NCI-H1975; test: Cytotoxicity against human NCI-H1975 cells assessed as change in morphology at 25 uM incubated for 24 hrs by phase contrast microscopic assay; assay type: functional, cell-based
[2] = tested on: NCI-H1975; test: Cytotoxicity against human NCI-H1975 cells at 0.8 to 50 uM incubated for 24 hrs by MTT assay; assay type: functional, cell-based; settings: dose 0.8-50 µM
[3] = tested on: PC-9; test: Cytotoxicity against human PC-9 cells assessed as change in morphology at 25 uM incubated for 24 hrs by phase contrast microscopic assay; assay type: functional, cell-based
[4] = tested on: PC-9; test: Cytotoxicity against human PC-9 cells at 0.8 to 50 uM incubated for 24 hrs by MTT assay; assay type: functional, cell-based; settings: dose 0.8-50 µM
[5] = tested on: A549; test: Cytotoxicity against human A549 cells assessed as change in morphology at 25 uM incubated for 24 hrs by phase contrast microscopic assay; assay type: functional, cell-based
[6] = tested on: HeLa; test: Cytotoxicity against human HeLa cells assessed as change in morphology at 18 uM incubated for 24 hrs by phase contrast microscopic assay; assay type: functional, cell-based
[7] = tested on: A549; test: Cytotoxicity against human A549 cells at 0.8 to 50 uM incubated for 24 hrs by MTT assay; assay type: functional, cell-based; settings: dose 0.8-50 µM
[8] = target: Serine/threonine-protein kinase PLK1 (Homo sapiens, UniProt P53350); test: Binding affinity to PLK1 PBD (unknown origin) by ITC method
[9] = tested on: PC-9; test: Induction of cell cycle arrest in human PC-9 cells at 10 uM incubated for 24 hrs by PI staining based flow cytometry analysis; assay type: functional
[10] = tested on: HeLa; test: Induction of cell cycle arrest in human HeLa cells at 10 uM incubated for 24 hrs by PI staining based flow cytometry analysis; assay type: functional
[11] = tested on: NCI-H1975; test: Induction of cell cycle arrest in human NCI-H1975 cells at 10 uM incubated for 24 hrs by PI staining based flow cytometry analysis; assay type: functional
[12] = tested on: A549; test: Induction of cell cycle arrest in human A549 cells at 10 uM incubated for 24 hrs by PI staining based flow cytometry analysis; assay type: functional
[13] = tested on: UBR/PLK1 (Homo sapiens); test: Protac activity at UBR/PLK1 in human HeLa cells assessed as PLK1 degradation at 50 uM after 24 to 48 hrs by immunoblotting analysis; settings: time 24-48 hrs
[14] = target: E3 ubiquitin-protein ligase UBR2 (Homo sapiens) (UniProt Q8IWV8); test: Binding affinity to UBR2 (unknown origin) expressed in HEK293T cells incubated for 3 hrs by pull-down assay; assay type: cell-based
[15] = tested on: UBR/PLK1 (Homo sapiens); test: Protac activity at UBR/PLK1 in human HeLa cells assessed as PLK1 degradation at 75 uM incubated for 24 hrs by immunoblotting analysis
[16] = tested on: UBR/PLK1 (Homo sapiens); test: Protac activity at UBR/PLK1 in human HeLa cells assessed as PLK1 degradation at 50 uM incubated for 24 hrs by immunoblotting analysis
[17] = tested on: UBR/PLK1 (Homo sapiens); test: Protac activity at UBR/PLK1 in human HeLa cells assessed as PLK1 degradation at 50 uM by immunoblotting analysis; settings: time 2-48 hrs, TDE = time-dependent effect
[18] = target: E3 ubiquitin-protein ligase UBR1 (Homo sapiens) (UniProt Q8IWV7); test: Binding affinity to UBR1 (unknown origin) expressed in HEK293T cells incubated for 3 hrs by pull-down assay; assay type: cell-based
[19] = tested on: UBR/PLK1 (Homo sapiens); test: Protac activity at UBR/PLK1 in human HeLa cells assessed as PLK1 degradation incubated for 24 hrs by immunoblotting analysis; settings: dose 25-100 µM
[20] = tested on: UBR/PLK1 (Homo sapiens); test: Protac activity at UBR/PLK1 in human HeLa cells assessed as PLK1 degradation at 50 uM preincubated for 24 hrs followed by MG132 addition for 8 hrs by immunoblotting analysis; settings: time 32.0 hrs
[21] = tested on: UBR/PLK1 (Homo sapiens); test: Protac activity at UBR/PLK1 in human HeLa cells assessed as PLK1 degradation at 100 uM incubated for 24 hrs by immunoblotting analysis
[22] = In vivo induction of PLK1 degradation in nude mouse xenografted with human NCI-H1975 cells assessed as reduction in PLK1 protein expression at 5 mg/kg, iv administered for every 3 days by Western blotting analysis; assay type: functional; design: scale not given: the % may be the effect or the level left

E3 ubiquitin-protein ligase UBR1 (Homo sapiens), sequence (Q8IWV7 whole entry): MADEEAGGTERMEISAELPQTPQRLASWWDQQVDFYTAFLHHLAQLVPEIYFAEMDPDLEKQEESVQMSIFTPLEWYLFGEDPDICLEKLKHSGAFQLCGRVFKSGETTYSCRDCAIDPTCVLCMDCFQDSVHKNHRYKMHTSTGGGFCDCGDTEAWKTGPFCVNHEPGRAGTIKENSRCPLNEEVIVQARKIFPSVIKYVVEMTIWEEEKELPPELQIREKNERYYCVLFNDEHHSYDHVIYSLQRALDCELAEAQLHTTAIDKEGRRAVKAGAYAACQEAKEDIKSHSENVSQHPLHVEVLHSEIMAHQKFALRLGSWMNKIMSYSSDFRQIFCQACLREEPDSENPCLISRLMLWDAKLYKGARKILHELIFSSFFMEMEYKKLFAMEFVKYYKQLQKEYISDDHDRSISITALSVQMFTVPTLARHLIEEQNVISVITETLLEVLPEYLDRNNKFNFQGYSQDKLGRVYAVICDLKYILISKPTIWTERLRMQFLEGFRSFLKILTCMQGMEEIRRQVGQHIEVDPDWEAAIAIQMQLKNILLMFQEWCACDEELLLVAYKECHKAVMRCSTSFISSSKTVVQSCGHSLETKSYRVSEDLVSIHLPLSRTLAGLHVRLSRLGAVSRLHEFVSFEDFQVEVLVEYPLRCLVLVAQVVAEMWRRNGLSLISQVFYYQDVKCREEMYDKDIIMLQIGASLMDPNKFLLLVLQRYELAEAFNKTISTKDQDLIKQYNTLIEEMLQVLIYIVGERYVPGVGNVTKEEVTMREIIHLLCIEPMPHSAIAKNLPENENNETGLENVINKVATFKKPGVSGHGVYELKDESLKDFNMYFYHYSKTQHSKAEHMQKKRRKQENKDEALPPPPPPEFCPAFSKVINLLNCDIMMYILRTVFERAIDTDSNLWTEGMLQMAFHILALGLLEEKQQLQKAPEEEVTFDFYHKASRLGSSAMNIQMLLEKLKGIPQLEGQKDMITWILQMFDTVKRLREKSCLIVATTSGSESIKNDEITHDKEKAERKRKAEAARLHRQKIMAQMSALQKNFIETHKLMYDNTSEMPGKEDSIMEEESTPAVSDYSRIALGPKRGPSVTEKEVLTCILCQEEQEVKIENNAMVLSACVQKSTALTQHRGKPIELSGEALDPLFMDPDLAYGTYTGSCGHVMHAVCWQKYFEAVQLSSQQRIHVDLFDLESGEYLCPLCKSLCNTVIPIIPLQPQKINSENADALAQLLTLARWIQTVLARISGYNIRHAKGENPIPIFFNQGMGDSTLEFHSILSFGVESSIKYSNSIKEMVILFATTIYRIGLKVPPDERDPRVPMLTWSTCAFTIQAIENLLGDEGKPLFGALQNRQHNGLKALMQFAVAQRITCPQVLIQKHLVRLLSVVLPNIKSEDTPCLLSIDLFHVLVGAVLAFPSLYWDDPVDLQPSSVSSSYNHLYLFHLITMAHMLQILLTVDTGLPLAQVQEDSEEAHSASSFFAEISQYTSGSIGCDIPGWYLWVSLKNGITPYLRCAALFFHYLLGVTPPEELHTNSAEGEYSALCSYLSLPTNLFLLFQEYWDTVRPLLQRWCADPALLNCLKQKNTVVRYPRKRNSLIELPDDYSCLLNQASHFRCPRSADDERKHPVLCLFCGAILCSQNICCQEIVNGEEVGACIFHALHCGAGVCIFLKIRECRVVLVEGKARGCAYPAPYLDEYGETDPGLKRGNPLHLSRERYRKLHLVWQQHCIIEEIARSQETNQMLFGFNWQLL
E3 ubiquitin-protein ligase UBR2 (Homo sapiens), sequence (Q8IWV8 whole entry): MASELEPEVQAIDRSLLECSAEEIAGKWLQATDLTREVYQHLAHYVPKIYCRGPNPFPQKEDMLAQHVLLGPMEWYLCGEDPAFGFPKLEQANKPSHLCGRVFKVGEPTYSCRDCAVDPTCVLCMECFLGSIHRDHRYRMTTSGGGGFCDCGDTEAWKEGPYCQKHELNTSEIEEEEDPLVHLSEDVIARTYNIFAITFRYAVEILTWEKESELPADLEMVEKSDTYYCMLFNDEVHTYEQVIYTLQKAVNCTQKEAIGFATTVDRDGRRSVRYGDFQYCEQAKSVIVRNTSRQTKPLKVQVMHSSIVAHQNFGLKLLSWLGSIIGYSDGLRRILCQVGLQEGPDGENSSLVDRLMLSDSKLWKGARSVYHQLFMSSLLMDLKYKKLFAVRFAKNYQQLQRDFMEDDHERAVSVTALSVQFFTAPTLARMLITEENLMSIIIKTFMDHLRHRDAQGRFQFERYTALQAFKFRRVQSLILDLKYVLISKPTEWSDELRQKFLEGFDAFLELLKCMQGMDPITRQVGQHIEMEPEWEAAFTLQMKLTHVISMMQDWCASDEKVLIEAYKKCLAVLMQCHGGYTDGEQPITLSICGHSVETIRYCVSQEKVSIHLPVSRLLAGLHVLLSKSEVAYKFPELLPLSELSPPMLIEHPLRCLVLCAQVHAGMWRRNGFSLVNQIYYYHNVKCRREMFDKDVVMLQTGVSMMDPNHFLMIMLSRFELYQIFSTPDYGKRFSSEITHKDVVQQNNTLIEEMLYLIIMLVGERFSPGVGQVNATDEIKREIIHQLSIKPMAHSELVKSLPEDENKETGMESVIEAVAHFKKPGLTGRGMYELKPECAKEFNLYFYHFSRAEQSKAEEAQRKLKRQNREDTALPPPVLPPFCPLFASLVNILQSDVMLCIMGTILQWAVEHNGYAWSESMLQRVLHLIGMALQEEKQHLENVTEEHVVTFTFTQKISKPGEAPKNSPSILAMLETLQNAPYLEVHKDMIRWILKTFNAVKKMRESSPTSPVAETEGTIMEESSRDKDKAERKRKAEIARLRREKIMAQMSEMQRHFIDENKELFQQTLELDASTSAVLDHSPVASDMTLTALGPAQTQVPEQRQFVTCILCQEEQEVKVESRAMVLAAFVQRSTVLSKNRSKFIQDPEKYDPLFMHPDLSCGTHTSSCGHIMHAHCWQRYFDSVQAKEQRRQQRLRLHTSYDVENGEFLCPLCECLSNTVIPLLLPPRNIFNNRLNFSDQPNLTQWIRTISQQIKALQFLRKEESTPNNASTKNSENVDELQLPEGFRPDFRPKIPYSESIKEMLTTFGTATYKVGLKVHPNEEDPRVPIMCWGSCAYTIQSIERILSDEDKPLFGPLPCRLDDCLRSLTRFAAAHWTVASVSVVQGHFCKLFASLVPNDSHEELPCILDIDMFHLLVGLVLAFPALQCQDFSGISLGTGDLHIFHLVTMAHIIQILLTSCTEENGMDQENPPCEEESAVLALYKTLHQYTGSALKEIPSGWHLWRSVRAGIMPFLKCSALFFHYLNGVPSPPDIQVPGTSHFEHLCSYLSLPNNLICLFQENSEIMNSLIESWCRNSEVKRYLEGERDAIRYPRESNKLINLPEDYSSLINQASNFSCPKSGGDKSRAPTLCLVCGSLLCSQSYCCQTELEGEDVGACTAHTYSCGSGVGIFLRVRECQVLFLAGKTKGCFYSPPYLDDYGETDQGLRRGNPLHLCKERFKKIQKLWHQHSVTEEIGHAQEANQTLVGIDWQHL
Serine/threonine-protein kinase PLK1, sequence (P53350 whole entry): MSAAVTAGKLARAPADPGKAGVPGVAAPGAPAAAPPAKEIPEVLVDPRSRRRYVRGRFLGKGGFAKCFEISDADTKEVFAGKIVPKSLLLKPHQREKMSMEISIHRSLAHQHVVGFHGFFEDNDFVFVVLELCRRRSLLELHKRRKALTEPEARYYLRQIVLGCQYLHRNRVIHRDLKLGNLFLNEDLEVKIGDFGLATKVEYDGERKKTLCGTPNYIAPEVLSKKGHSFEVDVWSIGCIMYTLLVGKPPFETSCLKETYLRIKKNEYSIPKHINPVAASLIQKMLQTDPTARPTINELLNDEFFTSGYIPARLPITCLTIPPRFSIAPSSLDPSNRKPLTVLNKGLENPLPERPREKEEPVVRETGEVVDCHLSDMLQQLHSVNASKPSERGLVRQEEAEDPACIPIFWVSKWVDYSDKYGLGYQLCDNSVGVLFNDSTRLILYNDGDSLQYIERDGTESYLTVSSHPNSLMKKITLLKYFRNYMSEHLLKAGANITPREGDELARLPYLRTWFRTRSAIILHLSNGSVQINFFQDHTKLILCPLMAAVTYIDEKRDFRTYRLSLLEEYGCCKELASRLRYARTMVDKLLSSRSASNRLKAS

Structure (SMILES): C[C@@H](OP(=O)(O)O)[C@@H]1NC(=O)[C@H](Cc2cncn2CCCCCCCCc2ccccc2)NC(=O)[C@@H](N)CCC(=O)NCCCC[C@@H](C(N)=O)NC1=O (HELM PEPTIDE1{E.[O=C([C@H](Cc1cncn1CCCCCCCCc1ccccc1)N[*:1])[*:2]].[C[C@@H](OP(=O)(O)O)[C@H](N[*:1])C(=O)[*:2]].K.[am]}$PEPTIDE1,PEPTIDE1,1:R3-4:R3$$$V2.0)
Activity [1]: inactive | Activity [2]: inactive | Activity [3]: inactive | Activity [4]: inactive | Activity [5]: inactive | Activity [6]: inactive | Activity [7]: inactive

Kd [8]: 2200 nM
Structure (SMILES): CC(C)C[C@H](NC(=O)[C@@H]1CCCN1C(=O)CCCCCNC(=O)[C@H](CCCNC(=N)N)NC(=O)[C@H](CCCNC(=N)N)NC(=O)[C@H](CCCNC(=N)N)NC(=O)[C@H](CCCNC(=N)N)NC(=O)[C@H](CCCNC(=N)N)NC(=O)[C@H](CCCNC(=N)N)NC(=O)[C@H](CCCNC(=N)N)NC(=O)[C@H](CCCNC(=N)N)NC(=O)[C@H](CCCNC(=N)N)NC(=O)[C@H](CCCNC(=N)N)NC(=O)[C@H](CCCNC(=N)N)NC(=O)[C@@H](N)CCCNC(=N)N)C(=O)N[C@@H](Cc1cnc[nH]1)C(=O)N[C@@H](CO)C(=O)N[C@H](C(N)=O)[C@@H](C)OP(=O)(O)O

Structure (SMILES): N=C(N)NCCC[C@H](NC(=O)[C@H](CCCNC(=N)N)NC(=O)[C@H](CCCNC(=N)N)NC(=O)[C@H](CCCNC(=N)N)NC(=O)[C@H](CCCNC(=N)N)NC(=O)[C@H](CCCNC(=N)N)NC(=O)[C@H](CCCNC(=N)N)NC(=O)[C@H](CCCNC(=N)N)NC(=O)[C@H](CCCNC(=N)N)NC(=O)[C@H](CCCNC(=N)N)NC(=O)[C@H](CCCNC(=N)N)NC(=O)[C@@H](N)CCCNC(=N)N)C(N)=O
Activity [1]: inactive | Activity [2]: inactive | Activity [3]: inactive | Activity [9]: inactive | Activity [4]: inactive | Activity [10]: inactive | Activity [5]: inactive | Activity [6]: inactive | Activity [11]: inactive | Activity [7]: inactive | Activity [12]: inactive

Activity [13]: 90% | Activity [14]: Active | Activity [15]: 70% | Activity [16]: 60% | Activity [17]: Tde | Activity [18]: Active | Activity [19]: Dose-Dependent Effect | Activity [20]: inactive | Activity [21]: 70%
Structure (SMILES): CC(C)C[C@H](NC(=O)[C@H]1CCCN1C(=O)CCCCCNC(=O)[C@H](CCCNC(=N)N)NC(=O)[C@H](CCCNC(=N)N)NC(=O)[C@H](CCCNC(=N)N)NC(=O)[C@H](CCCNC(=N)N)NC(=O)[C@H](CCCNC(=N)N)NC(=O)[C@H](CCCNC(=N)N)NC(=O)[C@H](CCCNC(=N)N)NC(=O)[C@H](CCCNC(=N)N)NC(=O)[C@H](CCCNC(=N)N)NC(=O)[C@H](CCCNC(=N)N)NC(=O)[C@H](CCCNC(=N)N)NC(=O)[C@@H](N)CCCNC(=N)N)C(=O)N[C@@H](Cc1cnc[nH]1)C(=O)N[C@@H](CO)C(=O)N[C@H](C(N)=O)[C@@H](C)OP(=O)(O)O

Structure (SMILES): C=CC(=O)Nc1cc(Nc2nccc(-c3cn(C)c4ccccc34)n2)c(OC)cc1N(C)CCN(C)C [OSIMERTINIB]
Activity [22]: >60%
